Data as given in PubChem BioAssay (NCI).
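At the GI50, growth is halved. At the TGI there is no net growth.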 Residues, ends and D or L forms follow the SMILES beside them. *: point of attachment. Cbz = O=C(OCc1ccccc1)*

How the values were obtained:
Assay in all cases: growth of human tumour cells (NCI), 384-well format
A549 NSCLC = tested on: A549 NSCLC
DU-145 prostate = tested on: DU-145 prostate
HL-60(TB) leukemia = tested on: HL-60(TB) leukemia
HT29 colon = tested on: HT29 colon
IGROV1 ovarian = tested on: IGROV1 ovarian
MDA-MB-231 breast = tested on: MDA-MB-231 breast
NCI-H322M lung = tested on: NCI-H322M lung
NCI-H460 NSCLC = tested on: NCI-H460 NSCLC
NCI-H522 lung = tested on: NCI-H522 lung
SK-MEL-5 melanoma = tested on: SK-MEL-5 melanoma
SK-OV-3 ovarian = tested on: SK-OV-3 ovarian
SR leukemia = tested on: SR leukemia
UACC-62 melanoma = tested on: UACC-62 melanoma

Row | SMILES | GI50 (A549 NSCLC) [nM] | TGI (A549 NSCLC) [nM] | GI50 (DU-145 prostate) [nM] | TGI (DU-145 prostate) [nM] | GI50 (HL-60(TB) leukemia) [nM] | TGI (HL-60(TB) leukemia) [nM] | GI50 (HT29 colon) [nM] | TGI (HT29 colon) [nM] | GI50 (IGROV1 ovarian) [nM] | TGI (IGROV1 ovarian) [nM] | GI50 (MDA-MB-231 breast) [nM] | TGI (MDA-MB-231 breast) [nM] | GI50 (NCI-H322M lung) [nM] | TGI (NCI-H322M lung) [nM] | GI50 (NCI-H460 NSCLC) [nM] | TGI (NCI-H460 NSCLC) [nM] | GI50 (NCI-H522 lung) [nM] | TGI (NCI-H522 lung) [nM] | GI50 (SK-MEL-5 melanoma) [nM] | TGI (SK-MEL-5 melanoma) [nM] | other results
1 | CC(C)C[C@@H](C=O)NC(=O)[C@H](CC(C)C)NC(=O)[C@H](CC(C)C)NC(=O)OCc1ccccc1 (Cbz-Leu-Leu-Leu-aldehyde) | 427 | 1690 | 212 | 506 | 171 | 311 | 178 | 335 | 184 | 358 | 177 | 326 | 361 | 1290 | 200 | 380 | 85.8 | 225 | 215 | 370 | GI50 (SK-OV-3 ovarian): 220 nM; TGI (SK-OV-3 ovarian): 538 nM; GI50 (SR leukemia): 24.7 nM; TGI (SR leukemia): 98 nM; GI50 (UACC-62 melanoma): 168 nM; TGI (UACC-62 melanoma): 312 nM
2 | Cc1[nH]nc2ncc(C(=O)N3CCC[C@H]3c3ccc(Cl)cc3)cc12 | > 100000 | > 100000 | > 100000 | > 100000 | 19700 | 34300 | > 100000 | > 100000 | 44700 | > 100000 | > 100000 | > 100000 | > 100000 | > 100000 | 60400 | > 100000 | 21300 | > 100000 | 50800 | > 100000 | GI50 (SK-OV-3 ovarian): > 100000 nM; TGI (SK-OV-3 ovarian): > 100000 nM; GI50 (SR leukemia): 11700 nM; TGI (SR leukemia): 25000 nM; GI50 (UACC-62 melanoma): 23400 nM; TGI (UACC-62 melanoma): 48600 nM
